From patent US7144881B2, “Arylcyclopropylcarboxylic amides as potassium channel openers” (Bristol-Myers Squibb Company, priority 2002, dated 2006)

Assays:
[1] = target: voltage-gated K+ channel KCNQ2 (Homo sapiens, UniProt O43526); assay: Thallium flux assay for openers of KCNQ potassium channels; type: cell-based; conditions: 10 point concentration series, 50% of the maximal response
From the text: A thallium flux assay was used to detect and characterize openers of KCNQ potassium channels. The thallium assay is generally described in International application WO 02/31508 published Apr. 18, 2002. More specifically, the thallium influx assay to detect compounds that block or open the voltage-gated K^+ channel KCNQ2 is described in Example IV of the published WO 02/31508 application.
For data analysis, the amplitude of the average of the negative controls was subtracted from all wells. The amplitudes of the test compounds were then compared to the value of four standard deviations of the negative control wells. The lowest concentration of a test compound sufficient to generate a signal amplitude greater than or equal to four standard deviations from the amplitude of the negative controls was defined as the minimal active concentration.
For generating EC50 values, compounds were serially diluted in 1:3 volume increments to produce a 10 point concentration series. EC50 values were calculated by fitting the resulting amplitudes to a single-site logistic equation. EC50 was defined as the concentration of test compound required to yield 50% of the maximal response. Maximal response (Maximal opening) was the largest signal amplitude above the negative control generated by any concentration of a test compound.

mKCNQ2 channels = target: T1, mKCNQ2 channels (Mus musculus, UniProt Q9Z351); assay: Whole-cell patch-clamp recordings of mKCNQ2 currents; type: cell-based; conditions: HEK 293 stable cell line expressing mKCNQ2
T1 construct: expressed in transfected cells
Procedure: Whole-cell patch-clamp recordings were made from an HEK 293 stable cell line expressing mKCNQ2 channels, maintained in culture for 1–2 days. Patch pipettes had initial resistances of 2.5–4 MΩ. Currents were recorded with an EPC-9 amplifier (HEKA, Lambrecht, Germany) controlled with software (Pulse, HEKA) run on a standard lab PC. Series resistance compensation was used during current recording, and set at 80%. The series resistance (R) and cell capacitance (C) were determined electronically by subtracting the capacitive currents at the onset and offset of a 5 mV voltage step. The cancellation of whole-cell capacitive transients was virtually complete in all cells. Analog current signals were low-pass filtered at 2.9 kHz using a four-pole Bessel filter −3 dB) and stored on a local network server computer at a sampling rate of […]. All recordings were performed at room temperature (20–22° C.). The pipette solution contained (mM): KCl, 150; CaCl2, 2.5; EGTA, 5; MgCl2, 1; HEPES, 10; pH to 7.3 with KOH, and Osmolality of 290–300 mOsm. The extracellular solution contained (mM): NaCl, 140; KCl, 2.5; CaCl2, 2.5; MgCl2, 1; glucose, 10; HEPES, 10; pH to 7.3 with NaOH, and Osmolality of 305–310 mOsm […]

Row | Compound | EC50 [1] [nM] | EC50 (mKCNQ2 channels; @ −40 mV, room temperature) [µM] | Imax (%) (mKCNQ2 channels; Imax from Hill-type curve fit)
1 | O=C(N[C@@H](CO)c1ccc2ccccc2c1)C1CC1c1ccccc1Cl (stereo partly drawn) [Example 9, 2-(2-Chloro-phenyl)-cyclopropanecarboxylic acid(2-hydroxy-1-naphthalen-2-yl-ethyl)-amide] | 22 |  | 
2 | O=C(N[C@@H](CO)c1ccc2ccccc2c1)C1CC1c1ccccc1F (stereo partly drawn) [Example 11, 2-(2-Fluoro-phenyl)-cyclopropanecarboxylic acid(2-hydroxy-1-naphthalen-2-yl-ethyl)-amide] | 1440 |  | 
3 | C[C@H](NC(=O)C1CC1c1cccc(F)c1)c1cccc(-c2ccc(Cl)nc2)c1 (stereo partly drawn) [Example 34, (S)-2-(3-Fluoro-phenyl)-cyclopropanecarboxylicacid {1-[3-(6-chloro-pyridin-3-yl)-phenyl]-ethyl}-amide] | 2210 |  | 

The next molecules have a lower EC50 [1] than those just listed; values first:

Row | EC50 [1] [nM] | EC50 (mKCNQ2 channels; @ −40 mV, room temperature) [µM] | Imax (%) (mKCNQ2 channels; Imax from Hill-type curve fit) | Compound
4 | 12 | 0.597 | 1232 | O=C(N[C@@H](CO)c1ccc2ccccc2c1)C1CC1c1ccc(F)cc1 (stereo partly drawn) [Example 13, 2-(4-Fluoro-phenyl)-cyclopropanecarboxylic acid(2-hydroxy-1-naphthalen-2-yl-ethyl)-amide]
5 | 1 |  |  | O=C(N[C@@H](CO)c1ccc2ccccc2c1)C1CC1c1cc(F)ccc1F (stereo partly drawn) [Example 14, 2-(2,5-Difluoro-phenyl)-cyclopropanecarboxylic acid(2-hydroxy-1-naphthalen-2-yl-ethyl)-amide]
6 | 1 |  |  | O=C(N[C@@H](CO)c1ccc2ccccc2c1)C1CC1c1ccccc1 (stereo partly drawn) [Example 15, 2-(phenyl)-cyclopropanecarboxylic acid(2-hydroxy-1-naphthalen-2-yl-ethyl)-amide]
7 | 1 |  |  | C[C@H](NC(=O)[C@@H]1C[C@H]1c1ccccc1)c1cccc(-c2cccnc2)c1 [Example 32, (S)-2-Phenyl-cyclopropanecarboxylicacid [1-(3-pyridin-3-yl-phenyl)-ethyl]-amide]
